{"source": "patent US6750322B2", "about": "“Guanosine triphosphate (GTP) binding protein-coupled receptor proteins” (Banyu Pharmaceutical Co., Ltd., priority 1998, dated 2004)", "key": {"human BG2 [1]": {"target": "T1, human BG2 (Homo sapiens, UniProt Q9Y5N1)", "T1 sequence (Q9Y5N1 1-453 isoform Q9Y5N1-2)": "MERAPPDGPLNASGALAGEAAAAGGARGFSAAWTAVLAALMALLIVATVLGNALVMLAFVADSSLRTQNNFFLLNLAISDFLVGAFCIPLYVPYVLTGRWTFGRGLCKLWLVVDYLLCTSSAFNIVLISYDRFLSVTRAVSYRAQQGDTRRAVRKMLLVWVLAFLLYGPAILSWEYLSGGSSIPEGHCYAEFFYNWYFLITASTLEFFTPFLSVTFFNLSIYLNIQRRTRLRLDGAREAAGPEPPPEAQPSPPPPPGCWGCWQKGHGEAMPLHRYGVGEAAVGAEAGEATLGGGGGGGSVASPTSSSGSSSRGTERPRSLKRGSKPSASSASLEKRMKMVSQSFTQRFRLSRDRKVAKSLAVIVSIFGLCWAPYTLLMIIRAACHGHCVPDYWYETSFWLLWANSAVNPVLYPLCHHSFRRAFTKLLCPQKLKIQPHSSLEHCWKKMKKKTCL", "experiment": "N-α-methylhistamine binding experiment on membrane fraction of COS7 cells expressing human BG2", "design": "the G protein-coupled receptor protein encoded by the isolated human BG2 cDNA, the present inventors prepared cells expressing the protein; expressed in transfected cells", "protocol": "(§1) Vectors expressing each BG2 receptor were prepared using pEF1x (Biochemical and Biophysical Research Communications, 1998, 250:68-71). Each BG2 expression vector was introduced into COS7 cells by lipofection method. Genes were introduced using Lipofectamine PLUS reagent (GIBCO-BRL) according to the attached manual.\n(§2) The cells were cultured at 37° C. for 24 hours in Dulbecco MEM medium (Asahi Techno Glass) to which fetal calf serum (Sigma) was added at a final concentration of 10%, in an incubator in which CO2 concentration was adjusted to 5%. Then, the cells were used for preparing a membrane fraction for the histamine binding experiment.\n(§3) The cells into which each BG2 receptor-expressing vector was introduced were crushed in 50 mM Tris-HCl pH 7.4 solution according to the standard method, uncrushed cells were removed by centrifuging at 1,000 g for 10 min, and supernatant was centrifuged at 100,000 g for 10 min to obtain a membrane fraction. The membrane fraction was resuspended in the 50 mM Tris-HCl pH 7.4 solution and centrifuged twice at 100,000 g for 10 min to finally obtain the membrane fraction. The membrane fraction obtained in this manner was suspended in 50 mM Tris-HCl pH 7.4 solution and used for the binding experiment.\n(§4) By using N-α-methylhistamine, a histamine analogue agonist, the binding experiment was conducted and the binding constants were determined (Table 2). […]"}, "rat BG2-2 [2]": {"target": "T2, rat BG2-2 (Rattus norvegicus, UniProt Q9QYN8)", "T2 sequence (Q9QYN8 whole entry)": "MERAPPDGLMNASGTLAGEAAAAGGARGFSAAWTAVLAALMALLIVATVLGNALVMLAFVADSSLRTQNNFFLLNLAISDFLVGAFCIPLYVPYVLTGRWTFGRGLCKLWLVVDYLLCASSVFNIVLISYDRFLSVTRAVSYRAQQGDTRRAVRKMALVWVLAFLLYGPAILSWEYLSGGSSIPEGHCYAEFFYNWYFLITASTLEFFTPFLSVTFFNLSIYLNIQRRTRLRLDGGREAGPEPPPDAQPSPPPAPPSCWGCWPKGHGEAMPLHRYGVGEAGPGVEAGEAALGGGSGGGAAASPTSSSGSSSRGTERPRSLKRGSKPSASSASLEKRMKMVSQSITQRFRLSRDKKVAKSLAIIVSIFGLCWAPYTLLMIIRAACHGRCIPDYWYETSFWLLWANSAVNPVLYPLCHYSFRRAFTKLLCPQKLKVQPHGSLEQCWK", "experiment": "N-α-methylhistamine binding experiment on membrane fraction of COS7 cells expressing rat BG2-2", "design": "Vectors expressing each BG2 receptor were prepared using pEF1x; expressed in transfected cells; host or cells: COS7 cells (membrane fraction)", "protocol": "as §1, §2, §3, §4"}, "rat BG2 [3]": {"target": "T3, rat BG2 (Rattus norvegicus, UniProt Q9QYN8)", "T3 sequence (Q9QYN8 1-413 isoform Q9QYN8-2)": "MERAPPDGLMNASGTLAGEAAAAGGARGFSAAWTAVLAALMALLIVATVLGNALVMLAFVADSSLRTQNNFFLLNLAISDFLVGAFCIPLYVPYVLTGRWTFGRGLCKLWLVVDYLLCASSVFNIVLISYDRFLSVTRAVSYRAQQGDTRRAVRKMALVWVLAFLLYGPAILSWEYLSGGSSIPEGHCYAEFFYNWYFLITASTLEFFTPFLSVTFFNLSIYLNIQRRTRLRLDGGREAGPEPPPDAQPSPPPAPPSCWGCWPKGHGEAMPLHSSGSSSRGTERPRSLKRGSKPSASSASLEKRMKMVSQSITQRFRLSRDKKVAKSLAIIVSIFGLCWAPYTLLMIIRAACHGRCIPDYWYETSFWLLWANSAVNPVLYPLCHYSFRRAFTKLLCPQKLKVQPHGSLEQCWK", "experiment": "N-α-methylhistamine binding experiment on membrane fraction of COS7 cells expressing rat BG2", "design": "succeeded in isolating a full-length cDNA (rat BG2 cDNA) encoding a rat G protein-coupled receptor; expressed in transfected cells; host or cells: COS7 cells (membrane fraction)", "protocol": "as §1, §2, §3, §4"}, "human BG2 [4]": {"target": "T1, human BG2", "experiment": "Intracellular cAMP measurement by CRE-β-lactamase reporter (method of Zlokarmik et al.) in human BG2-expressing HEK 293 cells with forskolin", "type": "cell-based", "design": "the G protein-coupled receptor protein encoded by the isolated human BG2 cDNA, the present inventors prepared cells expressing the protein; expressed in transfected cells; host or cells: HEK 293 cells carrying a CRE-beta-lactamase reporter (Aurora), hygromycin-selected", "details": "drug 1 μg/ml, forskolin 0.5 μM", "protocol": "This human BG2 expression vector was introduced by lipofection method into HEK 293 cells in which β-lactamase gene was ligated downstream of CRE sequence (purchased from Aurora). For introducing the gene, Lipofectamine PLUS reagent (GIBCO-BRL) was used and the experimental manipulation was performed according to the attached manual.\nHuman BG2-expressing cells were selected by placing cells in a medium containing hygromycin, and cells which grew in the medium were used for a functional assay as human BG2-expressing cells."}, "[5]": {"test_system": "control cells expressing nothing", "experimental": "The intracellular cAMP concentration was measured by the method of Zlokarmik et al. (Science, 1998, 279:84). In the method of Zlokarmik et al., intracellular cAMP concentration was measured by introducing the gene in which β-lactamase gene was ligated downstream of the sequence that increased transcription activity of a gene downstream thereof dependently on the increase of intracellular cAMP concentration (CRE: cAMP responsible element), and by measuring fluorescence changes in florescent substrates to which an activity of β-lactamase transcribed and translated by the change of cAMP concentration in the cells was added.\nMoreover, to measure the decrease of intracellular cAMP concentration mediated by the bound G protein in seven-transmembrane receptors, an activity of β-lactamase depending on the intracellular cAMP concentration was increased by adding forskolin and the decrease of cAMP in cells was measured with the decrease of β-lactamase activity when a ligand was reacted.\nThe cells in which the above reporter gene and human BG2 were expressed were washed with PBS(−) buffer (GIBCO-BRL) twice, Cell-dissociation buffer (GIBCO-BRL) was added thereto, and the cells were warmed at 37° C. in a CO2 incubator for 3 min and dissociated from a flask by gently tapping the incubation flask. […]"}, "rat BG2-2 [6]": {"target": "T2, rat BG2-2", "details": "10 μM forskolin; various histamine concentrations; 15 min; rat BG2-2-expressing cells", "protocol": "(§5) HEK293-CRE-BLA cells (Aurora) were cultured using the D-MEM/F-12 (1:1) mixed medium (GIBCO BRL) containing 10% fetal calf serum and 500 μg/ml G418 at 37° C. in the presence of 5% CO2. Effectene Transfection Reagent (QIAGEN) was used for gene introduction.\n(§6) A day prior to the gene introduction, cells were spread on a 6-well plate (NUNC) at 3×10^5 cells/well and 0.4 μg each of the rat BG-2 and BG2-2 expression vectors was introduced into them using 10 μl/well Effectene Transfection Reagent according to the attached manual. The cells were cultured at 37° C. in the presence of 5% CO2 for 48 hours.\n(§7) To isolate single cells into which the target gene was introduced, the cells were detached from a Petri dish by trypsin, and spread to a 96-well plate (NUNC) at 2000 to 250 cells/well. The cells were further cultured in selection medium containing hygromycin at 37° C. in the presence of 5% CO2 for 14 days. Wells containing cells consisting of a single colony were only selected and cells were passage-cultured to prepare a stable cell line. […] As a control, rat BG2-expressing cells were prepared in the same manner."}, "rat BG2 [7]": {"target": "T3, rat BG2", "details": "10 μM forskolin; various histamine concentrations; 15 min; rat BG2-expressing cells", "protocol": "as §5, §6, §7"}}, "data": [{"smiles": "CNCCc1c[nH]cn1.Cl.Cl", "note": "[N-α-methylhistamine, Histamine, N-alpha-methyl-dihydrochloride]", "values": [{"measurement": "Kd", "setting": "human BG2 [1]; Human BG2, COS7 membrane fraction, 30° C., 40 min, read-out: Binding Constant", "value": "0.548 ± 0.0751", "unit": "nM"}, {"measurement": "specific binding (in words)", "setting": "human BG2 [1]; human BG2, nonspecific with 2 μM N-α-methylhistamine", "value": "specifically bound"}, {"measurement": "Kd", "setting": "rat BG2-2 [2]; Rat BG2-2, COS7 membrane fraction, 30° C., 40 min, read-out: Binding Constant", "value": "0.582 ± 0.0261", "unit": "nM"}, {"measurement": "specific binding (in words)", "setting": "rat BG2-2 [2]; rat BG2-2, nonspecific with 2 μM N-α-methylhistamine", "value": "specifically bound"}, {"measurement": "Kd", "setting": "rat BG2 [3]; Rat BG2, COS7 membrane fraction, 30° C., 40 min, read-out: Binding Constant", "value": "0.503 ± 0.0198", "unit": "nM"}, {"measurement": "specific binding (in words)", "setting": "rat BG2 [3]; rat BG2, nonspecific with 2 μM N-α-methylhistamine", "value": "specifically bound"}]}, {"smiles": "NCCc1ccc(O)c(O)c1", "note": "[dopamine]", "values": [{"measurement": "reduction of intracellular cAMP concentration (in words)", "setting": "human BG2 [4]", "value": "did not reduce intracellular cAMP concentration"}]}, {"smiles": "C[N+](C)(C)CCOC(N)=O", "note": "[carbachol]", "values": [{"measurement": "reduction of intracellular cAMP concentration (in words)", "setting": "human BG2 [4]", "value": "did not reduce intracellular cAMP concentration"}]}, {"smiles": "Cl.Cl.NCCc1c[nH]cn1", "note": "[histamine, Histamine dihydrochloride]", "values": [{"measurement": "reduction of intracellular cAMP concentration (in words)", "setting": "human BG2 [4]", "value": "intracellular cAMP concentration was decreased"}, {"measurement": "ratio of EM460/EM530 relative to the control", "setting": "human BG2 [4]; control = 100, absence of forskolin = 0", "value": 35, "unit": "%"}, {"measurement": "reduction of intracellular cAMP concentration (in words)", "setting": "[5]", "value": "not observed"}, {"measurement": "decrease of intracellular cAMP concentration (in words)", "setting": "rat BG2-2 [6]", "value": "decrease of intracellular cAMP concentration, dependent on histamine concentration, was confirmed"}, {"measurement": "decrease of intracellular cAMP concentration (in words)", "setting": "rat BG2 [7]", "value": "decrease of intracellular cAMP concentration, dependent on histamine concentration, was confirmed"}]}, {"smiles": "NCCc1c[nH]c2ccc(O)cc12", "note": "[serotonine]", "values": [{"measurement": "reduction of intracellular cAMP concentration (in words)", "setting": "human BG2 [4]", "value": "did not reduce intracellular cAMP concentration"}]}]}
